Assay results as given in patent US20150283051A1, “DERIVATIVE OF NOVEL POLYHYDROXY AROMATIC COMPOUND AND USE THEREOF” (RNS CO.,LTD., priority 2012, published 2015).

What was measured:
[1] = tested on: B-16 mouse melanoma cells; assay: Measurement of melanin generation inhibitory effects in cultured melanoma cells; format: cell-based; details: for inhibition at 20 µg/mL: concentration 20 μg/ml
[2] = tested on: B-16 mouse melanoma cells; details: 1 μg/ml or more
Description: Then, these cells were treated using trypsin, separated from a culture vessel and centrifuged, then, melanin was extracted from the cells. Melanin was dissolved by adding 1 ml of 1N sodium hydroxide solution to the extract and subjected to measurement of absorbance at 475 nm, and an amount of the generated melanin was expressed by an absorbance per unit number of cells (10^6 cells) (this procedure was repeated three times).

[3] = Mus musculus, 72 h, concentration 5 μg/ml, cultured 3 days, relative to control, read-out: Inhibition rate (melanin generation)
[4] = Mus musculus, 72 h, cultured 3 days, relative to control, read-out: Inhibition rate (melanin generation)

| SMILES | inhibition at 5 µg/mL [1, 3] [%] | inhibition at 20 µg/mL [1, 4] [%] | inhibition at 1 µg/mL ([1]; Mus musculus, 72 h, concentration 1 μg/ml, cultured 3 days, relative to control, read-out: Inhibition rate (melanin generation)) [%] | Inhibition rate (melanin generation) ([1]; concentration 5 μg/ml, cultured 3 days, relative to control) | Melanin generation inhibitory effects (in words) ([1]; cultured mouse melanoma cells, comparison with hydroquinone) | Cytotoxicity [2] |
| --- | --- | --- | --- | --- | --- | --- |
| CCCCC(CC)C(=O)Oc1cc(OC(=O)C(CC)CCCC)c2c(=O)c(OC(=O)C(CC)CCCC)c(-c3ccccc3)oc2c1 (stereo not drawn) [Material in Example 13, 3,5,7-tris-(2-ethylhexanoyloxy)-flavone] | 30 | 63 | – | – | – | – |
| CCCCC(CC)C(=O)Oc1cc(OC(=O)C(CC)CCCC)c2ccccc2c1 (stereo not drawn) [Material in Example 8, 1,3-bis-(2-ethylhexanoyloxy)-naphthalene] | 35 | 63 | – | – | – | – |
| CCCCC(=O)Oc1cccc(OC(=O)CCCC)c1 [Material in Example 2, 1,3-bis-pentanoyloxy-benzene] | 52 | 85 | – | – | – | – |
| CCCCCCCCCCCC(=O)Oc1cccc(OC(=O)CCCCCCCCCCC)c1 [Material in Example 7, 1,3-bis-lauroyloxy-benzene] | 21 | 43 | – | – | – | – |
| CCCCC(CC)C(=O)Oc1ccc(-c2coc3cc(OC(=O)C(CC)CCCC)cc(OC(=O)C(CC)CCCC)c3c2=O)cc1 (stereo not drawn) [Material in Example 12, 4′,5,7-tris-(2-ethylhexanoyloxy)-isoflavone] | 35 | 65 | – | – | – | – |
| CCCCC(CC)C(=O)Oc1cccc(OC(=O)C(CC)CCCC)c1 (stereo not drawn) [Material in Example 5, 1,3-bis-(2-ethyl-hexanoyloxy)-benzene] | 45 | 79 | – | – | – | – |
| CCCCC(CC)C(=O)Oc1ccc(-c2cc(=O)c3c(OC(=O)C(CC)CCCC)cc(OC(=O)C(CC)CCCC)cc3o2)cc1 (stereo not drawn) [Material in Example 14, 5,7,4′-tris-(2-ethylhexanoyloxy)-flavone] | 31 | 57 | – | – | – | – |
| CCCCC(CC)C(=O)Oc1cc(OC(=O)C(CC)CCCC)c2c(c1)OC(c1ccc(OC(=O)C(CC)CCCC)c(OC(=O)C(CC)CCCC)c1)C(OC(=O)C(CC)CCCC)C2 (stereo not drawn) [Material in Example 19, 3,3′,4′,5,7-pentakis-(2-ethylhexanoyloxy)-flavane] | 39 | 69 | – | – | – | – |
| CCCCC(CC)C(=O)Oc1cccc(OC(=O)C(CC)CCCC)c1OC(=O)C(CC)CCCC (stereo not drawn) [Material in Example 10, 1,2,3-tris-(2-ethylhexanoyloxy)-benzene] | 38 | 65 | – | – | – | – |
| CCCCC(CC)C(=O)Oc1cc2oc(-c3ccccc3)cc(=O)c2c(OC(=O)C(CC)CCCC)c1OC(=O)C(CC)CCCC (stereo not drawn) [Material in Example 15, 5,6,7-tris-(2-ethylhexanoyloxy)-flavone] | 39 | 72 | – | – | – | – |
| CCCC(=O)Oc1cccc(OC(=O)CCC)c1 [Material in Example 1, 1,3-bis-butyryloxy-benzene] | 43 | 68 | – | – | – | – |
| Oc1ccc(O)cc1 [Hydroquinone, hydroquinone, reference compound] | – | – | 52 | Apoptosis | strong effects of inhibiting melanin generation at a low concentration | serious cytotoxicity |
| CCCCCCCC(=O)Oc1cccc(OC(=O)CCCCCCC)c1 [Material in Example 4, 1,3-bis-octanoyloxy-benzene] | 41 | 71 | – | – | – | – |
| CCCCC(CC)C(=O)Oc1ccc(C2CC(=O)c3c(OC(=O)C(CC)CCCC)cc(OC(=O)C(CC)CCCC)cc3O2)cc1 (stereo not drawn) [Material in Example 16, 4′,5,7-tris-(2-ethylhexanoyloxy)-flavanone] | 41 | 59 | – | – | – | – |
| CC(C)=CC(=O)Oc1cccc(OC(=O)C=C(C)C)c1 [Material in Example 3, 1,3-bis-(3-methyl-2-butenoyloxy)-benzene] | 53 | 83 | – | – | – | – |
| CCCCC(CC)C(=O)Oc1ccnc(OC(=O)C(CC)CCCC)c1 (stereo not drawn) [Material in Example 9, 2,4-bis-(2-ethylhexanoyloxy)-pyridine] | 41 | 67 | – | – | – | – |
| CCCCC(CC)C(=O)Oc1ccc(-c2oc3cc(OC(=O)C(CC)CCCC)cc(OC(=O)C(CC)CCCC)c3c(=O)c2OC(=O)C(CC)CCCC)cc1 (stereo not drawn) [Material in Example 17, 3,5,7,4′-tetrakis-(2-ethylhexanoyloxy)-flavone] | 32 | 69 | – | – | – | – |
| CCCCC(CC)C(=O)Oc1cc(C=Cc2ccc(OC(=O)C(CC)CCCC)c(OC(=O)C(CC)CCCC)c2)cc(OC(=O)C(CC)CCCC)c1 (stereo not drawn) [Material in Example 18, 3,4,3′,5′-tetrakis-(2-ethylhexanoyloxy)-stilbene] | 47 | 72 | – | – | – | – |
| CCCCCCCCCC(=O)Oc1cccc(OC(=O)CCCCCCCCC)c1 [Material in Example 6, 1,3-bis-decanoyloxy-benzene] | 32 | 53 | – | – | – | – |
| CCCCC(CC)C(=O)Oc1ccc(C=Cc2cc(OC(=O)C(CC)CCCC)cc(OC(=O)C(CC)CCCC)c2)cc1 (stereo not drawn) [Material in Example 11, 3,4′,5-tris-(2-ethylhexanoyloxy)-stilbene] | 31 | 54 | – | – | – | – |
